Here are results for 12 compounds from ChEMBL document CHEMBL2390906, “Synthetic chalcones and sulfonamides as new classes of Yersinia enterocolitica YopH tyrosine phosphatase inhibitors” (Eur J Med Chem, 2013).

What is called pIC50 is the IC50 on a negative log10 scale, so that one unit is a factor of ten. The term inhibition denotes how much of the control response was suppressed. One may read the pKi as the negative decadic logarithm of the Ki, by convention in mol/L.

pIC50, pKi: −log10 of the molar value.

Assay [1] deals with T1, Tyrosine-protein phosphatase YopH (Yersinia enterocolitica, UniProt P15273). Put plainly: Inhibition of Yersinia enterocolitica recombinant YopH using pNPP as substrate after 10 mins by spectrophotometry.
T1 sequence (P15273 whole entry): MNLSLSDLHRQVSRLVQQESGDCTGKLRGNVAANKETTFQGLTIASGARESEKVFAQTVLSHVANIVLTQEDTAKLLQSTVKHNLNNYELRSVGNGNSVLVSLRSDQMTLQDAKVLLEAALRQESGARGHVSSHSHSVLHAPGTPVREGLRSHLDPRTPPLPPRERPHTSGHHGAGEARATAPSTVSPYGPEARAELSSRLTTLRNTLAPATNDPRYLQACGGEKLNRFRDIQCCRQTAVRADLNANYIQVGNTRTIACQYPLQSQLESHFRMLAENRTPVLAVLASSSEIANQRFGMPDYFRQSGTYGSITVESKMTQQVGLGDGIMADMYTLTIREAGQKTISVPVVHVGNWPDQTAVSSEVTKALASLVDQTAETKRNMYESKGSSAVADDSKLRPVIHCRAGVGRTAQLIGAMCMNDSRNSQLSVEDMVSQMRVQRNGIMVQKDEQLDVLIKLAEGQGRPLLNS
Assay [2] has as its target Tyrosine-protein phosphatase YopH (Yersinia enterocolitica) (UniProt P15273). Description: Inhibition of Yersinia enterocolitica recombinant YopH using pNPP as substrate at 25 uM after 10 mins by spectrophotometry.
In assay [3] the target is T1, Tyrosine-protein phosphatase YopH. Put plainly: Competitive inhibition of Yersinia enterocolitica recombinant YopH using pNPP as substrate after 10 mins by Line-weaver Burk plot analysis.
Assay [4] has the same target. Description: Noncompetitive inhibition of Yersinia enterocolitica recombinant YopH using pNPP as substrate after 10 mins by Line-weaver Burk plot analysis.

Tyrosine-protein phosphatase YopH (Yersinia enterocolitica), sequence (P15273 whole entry): as above

As to `O=C(/C=C/c1cccc([N+](=O)[O-])c1)c1ccc2ccccc2c1`, the pIC50 in assay [1] was 3.91. Also, the inhibition in assay [2] was determined as 34.7%.
Take `O=C(/C=C/c1ccc(-c2cc(C(F)(F)F)ccc2Cl)o1)c1ccc2c(c1)OCO2`: the negative-log Ki (pKi) in assay [3] is 4.95. Also, the pIC50 in assay [1] is 4.41. Moreover, the inhibition in assay [2] is 33.8%.
As for `CC12C=CC(O1)[C@H]1C(=O)N(c3ccc(S(=O)(=O)N/N=C/c4ccc(Cl)c(Cl)c4)cc3)C(=O)[C@H]12` (stereo not given in full), in assay [1], the pIC50 was 4.21. For the same compound, in assay [2], the inhibition is 45.6%.
As for `O=C(/C=C/c1ccc2ccccc2c1)c1ccc2ccccc2c1`, the negative-log Ki (pKi) in assay [3] was 4.85. Moreover, the pIC50 in assay [1] is 4.69. In assay [2], the inhibition worked out at 66.9%.
For `O=C(/C=C/c1ccc2c(c1)OCO2)c1ccc([N+](=O)[O-])cc1` the same measures were 5.36, 4.82 and 65.7%.
Consider `O=C1c2cccc3c(Cl)ccc(c23)C(=O)N1Cc1ccc(S(=O)(=O)N2CCOCC2)cc1`, for which, in assay [1], the pIC50 was 4.81. Besides, in assay [2], the inhibition came to 82.1%. In assay [4], the pKi was 4.44.
Turning to `O=C(/C=C/c1ccc2c(c1)OCO2)c1cccc([N+](=O)[O-])c1`, the pKi in assay [3] is 5.35. Also, the pIC50 in assay [1] is 5.00. The inhibition in assay [2] came out at 31.3%.
`COc1ccc2nc(Cl)c(/C=C/C(=O)c3ccc4ccccc4c3)cc2c1`: the pIC50 in assay [1] is 3.57. The inhibition in assay [2] came to 34.6%.
Consider `O=C1[C@@H]2C3C=CC(O3)[C@@H]2C(=O)N1c1ccc(S(=O)(=O)N2CCCC2)cc1`, for which, in assay [3], the pKi was 5.36. In addition, the pIC50 in assay [1] was 5.05. Besides, the inhibition in assay [2] was 76.4%.
Take `O=C(/C=C/c1cccc2ccccc12)c1ccc2ccccc2c1`: the negative-log IC50 (pIC50) in assay [1] was 3.71. In addition, in assay [2], the inhibition amounted to 26.5%.
As to `O=C(/C=C/c1cc2ccccc2nc1Cl)c1ccc2c(c1)OCO2`, the pIC50 in assay [1] is 3.93. In addition, the inhibition in assay [2] worked out at 44.2%.
In the same order, the values of `O=C(/C=C/c1ccccc1)c1ccc2ccccc2c1` are 3.61 and 30.9%.
